Experimental data: publication PMC6796237 (ACS Omega, 2019)

Target: recombinant HCV NS3/4A GT1b wt (Hepatitis C virus genotype 1b, UniProt Q9WMX2)
Assay: HCV NS3/4A enzymatic inhibition assay, wild type
Assay type: biochemical
Settings: compounds at 13.08, 14.68, 4.60 μM of 1, 12, 22; 40 nM enzyme

Sequence of recombinant HCV NS3/4A GT1b wt (Q9WMX2 1027-1657 limits assumed): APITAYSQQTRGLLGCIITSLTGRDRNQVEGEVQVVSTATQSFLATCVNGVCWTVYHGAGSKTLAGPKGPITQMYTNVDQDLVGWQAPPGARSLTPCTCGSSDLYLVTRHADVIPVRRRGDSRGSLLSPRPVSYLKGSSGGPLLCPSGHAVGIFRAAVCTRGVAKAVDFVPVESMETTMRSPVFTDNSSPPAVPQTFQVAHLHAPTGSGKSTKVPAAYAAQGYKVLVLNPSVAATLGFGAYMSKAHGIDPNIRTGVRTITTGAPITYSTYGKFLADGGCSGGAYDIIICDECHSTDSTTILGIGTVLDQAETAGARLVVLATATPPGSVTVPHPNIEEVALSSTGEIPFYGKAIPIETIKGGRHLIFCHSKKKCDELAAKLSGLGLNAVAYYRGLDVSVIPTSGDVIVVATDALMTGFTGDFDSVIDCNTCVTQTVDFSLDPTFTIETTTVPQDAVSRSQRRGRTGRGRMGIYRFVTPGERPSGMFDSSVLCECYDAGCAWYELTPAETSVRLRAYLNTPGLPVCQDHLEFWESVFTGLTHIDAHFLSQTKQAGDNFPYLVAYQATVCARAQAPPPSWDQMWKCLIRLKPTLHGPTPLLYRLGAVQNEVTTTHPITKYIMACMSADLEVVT
Sequence of recombinant HCV NS3/4A GT1b wt (Q9WMX2 1658-1711 partner limits assumed): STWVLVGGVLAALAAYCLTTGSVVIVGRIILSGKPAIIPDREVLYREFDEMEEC

3-(1H-Indol-3-yl)-2-(3-(4-isopropylphenyl)ureido)-N-(3-(piperidin-1-yl)propyl)propenamide [Compound 22]
Decrease of HCV NS3/4A activity: about 50%
